How the values were obtained:
[1] = tested on: Holstein cows having somatic cell counts of 300,000/mL to 1,000,000/mL; test: Analysis of the DHI indicators of milk after subcutaneous injection of melatonin; format: in vivo
Excerpt: (1) According to the monthly DHI test reports from the dairy farm, Holstein cows having somatic cell counts of 300,000/mL to 1,000,000/mL are selected to be fed separately, and are ensured to have no significant difference in physical health. Season groups: spring n=90, summer n=74, autumn n=83, winter n=81 (number of cows). Age groups: 2-year-old n=23; 3-year-old n=80; 4-year-old n=66; 5-year-old n=56; 6-year-old n=27; 7-year-old n=19 (number of cows). Lactation period groups: peak-lactation n=15, mid-lactation n=38, end-lactation n=59 (number of cows) (initial-lactation: days 1-15 after calving; peak-lactation: days 16-100 after calving; mid-lactation: days 101-200 after calving; end-lactation: day 201 after calving to weaning).
(2) The dairy cows having high somatic cell counts are injected with 2 mL melatonin solution every day for 4 consecutive days in each month. 15 days after the injection, fresh milk was collected and stored in 50 mL centrifuge tubes, and was tested for the changes in somatic cell counts. The cows were fed with total mixed ration, and were fed three times at 06:00, 12:00, and 18:00 respectively. Then, the cows entered the sports ground to move freely, drink water and rest.
(3) The sampling bottles were numbered and added with 2-3 drops of potassium dichromate saturated solution, and were used for collecting the milk samples from the milk by the first milking of the cows. The milk sample for each cow was in a volume of 40 mL and placed in a centrifuge tube. After sampling, all the remaining milk was drained from the tubes which were cleaned to avoid contamination between the samples. The samples were stored at 2-7° C. The instrument for measuring the DHI indicators is Milkscan FT+&FC automatic milk compositional analyzer and somatic cell counter. The measurement was carried out in the National Laboratory for Preparation of Standard Materials of DHI.

cows = test: Blood indicators of cows after injection of melatonin; conditions: in vivo
[2] = 2-year-old cows, after injection
[3] = 3-year-old cows, after injection
[4] = 4-year-old cows, after injection
[5] = 5-year-old cows, after injection
[6] = 6-year-old cows, after injection
[7] = 7-year-old cows, after injection
[8] = peak-lactation, after injection

## COc1ccc2[nH]cc(CCNC(C)=O)c2c1 [melatonin]
[1]; [2]
  dry matter contents: 13.87%±0.27
  fat contents: 4.54%±0.26
  lactose contents: 5.19%±0.03
  milk production: 32.12 ± 1.63 kg/day
  protein contents: 3.41%±0.09
  somatic cell scores: 3.87±0.33
  urea nitrogen contents: 13.90 ± 0.80 mg/dL
[1]; [3]
  dry matter contents: 13.57%±0.13
  fat contents: 4.36%±0.11
  lactose contents: 5.03%±0.02
  milk production: 32.11 ± 0.96 kg/day
  protein contents: 3.44%±0.04
  somatic cell scores: 4.31±0.18
  urea nitrogen contents: 13.58 ± 0.46 mg/dL
[1]; [4]
  dry matter contents: 14.18%±0.15
  fat contents: 4.69%±0.13
  lactose contents: 4.94%±0.03
  milk production: 30.03 ± 1.22 kg/day
  protein contents: 3.66%±0.06
  somatic cell scores: 4.68±0.18
  urea nitrogen contents: 13.32 ± 0.49 mg/dL
[1]; [5]
  dry matter contents: 13.87%±0.18
  fat contents: 4.62%±0.16
  lactose contents: 4.86%±0.05
  milk production: 33.56 ± 1.52 kg/day
  protein contents: 3.55%±0.07
  somatic cell scores: 4.04±0.19
  urea nitrogen contents: 14.09 ± 0.59 mg/dL
[1]; [6]
  dry matter contents: 14.13%±0.24
  fat contents: 5.27%±0.21
  lactose contents: 4.91%±0.06
  milk production: 35.19 ± 2.67 kg/day
  protein contents: 3.38%±0.07
  somatic cell scores: 5.19±0.27
  urea nitrogen contents: 15.79 ± 0.94 mg/dL
[1]; [7]
  dry matter contents: 13.48%±0.32
  fat contents: 4.66%±0.37
  lactose contents: 4.93%±0.06
  milk production: 30.34 ± 2.08 kg/day
  protein contents: 3.32%±0.07
  somatic cell scores: 5.03±0.29
  urea nitrogen contents: 15.11 ± 1.34 mg/dL
[1]; autumn, after injection
  dry matter contents: 14.10%±0.14
  fat contents: 4.68%±0.13
  lactose contents: 5.07%±0.04
  milk production: 32.07 ± 1.05 kg/day
  protein contents: 3.64%±0.05
  urea nitrogen contents: 11.72 ± 0.36 mg/dL
[1]; autumn, after injection (second value of before VS after)
  somatic cell scores: 4.55±0.16
[1]; end-lactation, after injection
  dry matter contents: 13.47%±0.13
  fat contents: 4.18%±0.12
  milk production: 31.25 ± 1.29 kg/day
  protein contents: 3.40%±0.04
  somatic cell scores: 1.99±0.15
  urea nitrogen contents: 12.04 ± 0.38 mg/dL
[1]; mid-lactation, after injection
  dry matter contents: 13.56%±0.14
  fat contents: 4.22%±0.11
  lactose contents: 5.19%±0.02
  milk production: 39.08 ± 1.79 kg/day
  protein contents: 3.45%±0.05
  somatic cell scores: 2.00±0.17
  urea nitrogen contents: 12.11 ± 0.54 mg/dL
[1]; [8]
  dry matter contents: 13.17%±0.29
  fat contents: 3.87%±0.26
  milk production: 38.80 ± 2.06 kg/day
  protein contents: 3.35%±0.06
  somatic cell scores: 2.04±0.24
  urea nitrogen contents: 11.12 ± 0.64 mg/dL
[1]; spring, after injection
  dry matter contents: 13.92%±0.15
  fat contents: 4.78%±0.14
  lactose contents: 4.94%±0.02
  milk production: 32.11 ± 1.15 kg/day
  protein contents: 3.49%±0.04
  urea nitrogen contents: 14.35 ± 0.45 mg/dL
[1]; spring, after injection (second value of before VS after), 2 mL/day s.c., 4 days, milk 15 days after
  somatic cell scores: 4.89±0.15
[1]; summer, after injection
  dry matter contents: 13.42%±0.13
  fat contents: 4.20%±0.12
  lactose contents: 5.06%±0.02
  milk production: 32.69 ± 1.00 kg/day
  protein contents: 3.45%±0.04
  urea nitrogen contents: 14.19 ± 0.50 mg/dL
[1]; summer, after injection (second value of before VS after)
  somatic cell scores: 4.09±0.20
[1]; whole year, n=328, p<0.01
  somatic cell score reduced by: 63.54%
[1]; whole year, n=328, p<0.05
  fat content of milk reduced by: 11.31%
  lactose content increased to: 4.74%
  protein content of milk increased by: 3.79%
  urea nitrogen content of milk reduced by: 11.08%
[1]; winter, after injection
  dry matter contents: 13.65%±0.12
  fat contents: 4.75%±0.11
  lactose contents: 4.84%±0.04
  milk production: 31.82 ± 1.17 kg/day
  protein contents: 3.43%±0.05
  urea nitrogen contents: 15.94 ± 0.51 mg/dL
[1]; winter, after injection (second value of before VS after)
  somatic cell scores: 4.34±0.17
cows
  concentration of alanine aminotransferase: increase
  concentration of albumin: increase
  concentration of cortisol: reduce
  concentration of serum lactate dehydrogenase: increase
  number of lymphocytes: reduce
  number of neutrophils: reduce
  number of white blood cells: reduce
